These results are taken from publication PMC12812009, “Optimization of 4‐Amino‐2‐Pyridone Inhibitors of Proprotein Convertase Subtilisin/Kexin Type 9: Integrating Structure–Activity and Structure–Metabolism Relationships” (Chemmedchem, 2025).

Like-named read-outs stand apart in the source and are kept apart here.

One may read the CC50 as the concentration at which the toxic effect on the cells reaches its halfway point. As a reminder, the IC50 is the concentration at which inhibition is half-maximal.

Data set [1] can be described thus: MTT cell viability assay in HepG2 cell cultures. The settings on record: human, HepG2 cells, MTT. The format is cell-based, human. As to the method:
(§1) The approach we set‐up to test the new PCSK9i was based on functional assay, which evaluated at the same time compounds cytotoxicity, and their effect on the secreted PCSK9 on the same cell line. First, cell viability was evaluated in HepG2 cell cultures using the MTT assay (CC50 values are reported in Table 1 and Figure 5 ) after 24 h of incubation in starving conditions (0.4% fetal bovine serum (FBS)). The low FBS concentration, and thus low extracellular lipoproteins, stimulates the sterol responsive element binding protein (SREBP) pathway, inducing the expression of LDLR, PCSK9, HMG‐CoA reductase,^[ [28] ^] thus increasing the uptake of exogenous cholesterol and enhancing the synthesis of endogenous cholesterol. This first step allowed us to calculate the CC50 and identify the noncytotoxic concentrations (viability higher than 90%; Table 1), then tested for PCSK9 inhibitory activity.
(§2) Cell viability was assessed using the MTT assay. Cells were seeded in 96‐well plates (2.5 × 10^4 cells/well) in MEM supplemented with 10% v/v FBS and incubated for 24 h. The cells were then treated with the synthesized compounds dissolved in DMSO at increasing concentrations (from 0.5 to 50 µM) in MEM supplemented with 0.4% v/v FBS for 24 h. Simvastatin [20 and 40 µM] and BBR [10 µM] (both from Merck, St. Louis, Missouri, USA) were used as internal controls as PCSK9 inducer and inhibitor, respectively.^[ [21] ^, [34] ^, [35] ^] The cells were then incubated for 2 h with a solution of MTT [1 mg mL^–1] in MEM supplemented with 0.4% v/v FBS, away from light sources. The supernatant was then collected and 200 µL of DMSO was added to each well to solubilize the newly formed formazan. Finally, an aliquot of 100 µL was taken to measure the absorbance at a wavelength of 570 nm using an absorbance microplate reader (Spark Tecan, Switzerland). Every experimental condition was run in duplicate and the average cell viability and standard deviation was calculated. Cell viability was expressed as the percentage of treated cells compared to untreated (basal) cells. CC50 values for each compound were calculated by interpolating the percentage of cell viability through nonlinear regression analysis of the log (inhibition) versus response using GraphPad Prism software version 8.0 (GraphPad Software Inc., La Jolla, CA).
For orientation: Tetrazolium dyes change colour on reduction, which living cells bring about.

Data set [2] can be described thus: In vitro metabolic stability with mouse liver microsomes. In kind it is in vitro ADME. The settings on record: for metabolic stability, percentage of intact compound recovered relative to control: MLM 1 mg/ml + NADPH-generating system, 10 µM, HPLC; for metabolic stability, percentage of intact compound recovered relative to control / metabolic stability (in words): 60 min; for metabolic stability (in words): MLM + NADPH-generating system. Here is the method: All newly synthesized LSF derivatives of 5c were biologically evaluated to determine whether the introduced modifications influenced both metabolic stability and anti‐PCSK9 activity. Microsomal stability assays were conducted to assess the impact of LSF modifications on improving the stability of 5c. In these assays, LSF derivatives were incubated with mouse liver microsomes (MLM) and an NADPH‐generating system for 60 min, followed by HPLC analysis. Control samples included compounds and liver microsomes without the NADPH system, allowing for the assessment of nonspecific binding to microsomes. […] Acylated derivatives 12, 13, and 14 achieved stability levels exceeding 95%, as did the bicyclic derivative 7, which exemplifies a dual‐site functionalization.
MLM (pooled male) were obtained from Xenotech, LLC (Cambridge, Kansas City, USA). Glucose‐6‐phosphate (G6P), oxidized nicotinamide‐adenine‐dinucleotide phosphate (NADP^+), magnesium chloride (MgCl2), and glucose‐6‐phosphate‐dehydrogenase (G6PDH) were supplied by Sigma‐Aldrich (Milan, Italy). Metabolic stability assays were modified from Ferlenghi et al.^[ [33] ^] Briefly, samples were prepared in 100 mM phosphate buffered saline (PBS), pH 7.4, containing 1 mg ml^–1 MLM and a NADPH‐generating system (5 mM MgCl2, 10 mM glucose‐6‐phosphate, 2 mM NADP^+, 1.5 U ml^–1 of glucose‐6‐phosphate dehydrogenase). After incubation (37 °C, 5 min stirring), compounds stock solutions in DMSO were added to a final concentration of 10 µM. The final DMSO percentage in samples was kept at 0.5%. After 60 min, single aliquots of reaction mixture were withdrawn, added of two volumes of acetonitrile, centrifuged (10,000 g, 10 min) and the supernatant was analyzed by HPLC. The unspecific binding to MLM was evaluated by means of control samples in which the compounds were incubated in the absence of a NADPH generating system. The apparatus used for HPLC analysis was a Shimadzu instrument, with a reverse‐phase Nova‐Pak column (Waters) (C18 4 μm 3.9 × 150 mm, Waters). The mobile phase, pumped at a flow rate of 1.2 ml min^–1, consisted of water and acetonitrile in either a 50:50 (v/v) ratio (compounds 5c, 6a, 6b, 6c, 7, 8, 12, 13, 14, 17b) or a 40:60 (v/v) ratio (compounds 11 and 15) or a 30:70 (v/v) ratio (for compounds 17a, 18a, 18b). For compounds 9 and 10, a phosphate buffer (5.98 g L^–1 Na2HPO4, 0.19 g L^–1 KH2PO4, adjusted to pH 7.4 with 85% H3PO4 and supplemented with 1.4 mL L^–1 triethylamine; final pH: 8) and acetonitrile (50:50, v/v) were pumped at a flow rate of 2 mL min^–1. In all cases, column temperature was 35 °C, injection volume was 50 µl, and absorbance was monitored at 254 nm. Serial dilutions for the calibration curves were prepared in the interval 0.5–20 µM in either PBS:CH3CN or H2O:CH3CN mixture (50:50, v/v) for compounds 5c, 6a, 6b, 8, 9, 10, 11, 12, 13, 14, 15, 17a, 17b, 18a, 18b, and in acetonitrile for compounds 6c and 7.
On the technique in general: Liver microsomes are vesicles of endoplasmic reticulum, rich in cytochrome P450 enzymes.

A further data set deals with secreted PCSK9. The data set can be described thus: PCSK9 secretion in culture medium, ELISA on HepG2 supernatants. In kind it is cell-based, human. Here is the method: Next, the levels of secreted PCSK9 were quantified by ELISA assay (Figure 5) only on supernatants collected from cells treated with noncytotoxic concentrations of each compound, as reported in Table 1. Simvastatin (Simva) at 20 and 40 μM and berberine (BBR) at 10 μM were included as controls. As described in the literature, simvastatin induces PCSK9 expression as a compensatory mechanism in response to its cholesterol‐lowering effects, being a pharmacological competitor for HMG‐CoA reductase, the rate‐limiting enzyme of the cholesterol biosynthetic pathway.^[ [29] ^] In contrast, BBR, a natural compound, reduces the expression of PCSK9 levels through transcriptional inhibition, thus increasing the LDLR availability on plasma membrane.^[ [30] ^] As additional and distinct mechanism to the latter, BBR is also able to stabilize the transcript of LDLR, thus increasing its half‐life.^[ [31] ^] As expected, cells stimulated with simvastatin released more PCSK9 into the culture medium compared to unstimulated cells, with a statistically significant concentration‐dependent effect (+73% at 20 μM, p < 0.01; +200% at 40 μM, p < 0.0001), while BBR at 10 μM decreased PCSK9 levels in the medium more than 50% (p < 0.0001 vs. basal) (Figure 5).^[ [32] ^] The amount of PCSK9 secreted into the culture media was measured with an appropriate ELISA kit (R&D System, DY3888 and DY008B2) on the supernatants collected during the MTT assay. Every experimental condition was run in duplicate and the average PCSK9 secretion and standard deviation was calculated. A 4PL regression analysis was used to interpolate unknowns with the standard curve using GraphPad Prism v10.2, according to manufacturers’ instructions. The data were normalized onto the corresponding cell viability, and IC50 was then calculated using GraphPad Prism v10.2.
On the technique in general: In an ELISA, binding on a coated surface is turned into a signal by an enzyme label.

The next data set has as its system HepG2 cell cultures. The data set can be described thus: MTT cell viability assay in HepG2 cell cultures. The format is cell-based, human. The following applies: 0.5-50.0 μM, HepG2, MTT, 24 h. Here is the method:
as §1, §2

Where [3] appears, read: printed in Figures 5 and 8, HepG2, 24 h, read-out: CC50.
Where [4] appears, read: Homo sapiens, HepG2, 24 h, read-out: secreted PCSK9 change vs. basal.
Where [5] appears, read: 24 h incubation, HepG2, 0.4% FBS, 0.5-50.0 μM, read-out: CC50 (CI 95%).
Setting [6] is: HepG2, 24 h, non-cytotoxic concentrations.
[7] abbreviates: Homo sapiens, HepG2, 24 h, ELISA on supernatants, normalized to viability, Figures 5 and 8 and text, read-out: IC50 (anti-PCSK9 activity, PCSK9 secretion).

Take `Cc1cc(N(Cc2ccc(C(F)(F)F)cc2)C(=O)c2ccccc2)cc(=O)n1Cc1ccc(C(F)(F)F)cc1` [Compound 13, N‐(6‐Methyl‐2‐Oxo‐1‐(4‐(Trifluoromethyl)Benzyl)‐1,2‐Dihydropyridin‐4‐yl)‐N‐(4‐(Trifluoromethyl)Benzyl)Benzamide]: the CC50 at 24 h in data set [1] (setting [3]) was more than 50 µM. The “metabolic stability, percentage of intact compound recovered relative to control” value in data set [2] is “exceeding 95%”. Moreover, the inhibition at 0.5 µM with secreted PCSK9 (Homo sapiens, 0.5 μM, HepG2, 24 h, read-out: secreted PCSK9 change vs. basal) was 17%. For the same molecule, the inhibition at 5 µM in the data set with secreted PCSK9 (setting [4]) was determined as 51%.

In the case of `Cc1cc(N(Cc2ccc(C(F)(F)F)cc2)C(=O)CCl)cc(=O)n1Cc1ccc(C(F)(F)F)cc1` [Compound 14, 2‐Chloro‐N‐(6‐Methyl‐2‐Oxo‐1‐(4‐(Trifluoromethyl)Benzyl)‐1,2‐Dihydropyridin‐4‐yl)‐N‐(4‐(Trifluoromethyl)Benzyl)Acetamide], in data set [1] (setting [5]), the CC50 at 24 h is 15 µM. Moreover, the “metabolic stability, percentage of intact compound recovered relative to control” value in data set [2] is recorded as “exceeding 95%”. Besides, the “effect on PCSK9 secretion (in words)” value in the data set on secreted PCSK9 (setting [6]) is on record as “a bit less effective than 8 at the highest concentration used”. Moreover, the IC50 in the data set with secreted PCSK9 (Homo sapiens, HepG2, Table S2, ELISA, non-cytotoxic concentrations, read-out: IC50 ± SD on PCSK9 secreted by HepG2) came out at 6.4 ± 0.37 µM.

For the molecule `CC(=O)N(Cc1ccc(C(F)(F)F)cc1)c1cc(C)n(Cc2ccc(C(F)(F)F)cc2)c(=O)c1Br` [Compound 15, N‐(3‐Bromo‐6‐Methyl‐2‐Oxo‐1‐(4‐(Trifluoromethyl)Benzyl)‐1,2‐Dihydropyridin‐4‐yl)‐N‐(4‐(Trifluoromethyl)Benzyl)Acetamide], in data set [1] (setting [3]), the CC50 at 24 h is more than 50 µM. The “metabolic stability (in words)” value in data set [2] was “did not result in improved stability over the single‐site modifications in 12 or 6b”. Further, the “effect on PCSK9 secretion (in words)” value in the data set with secreted PCSK9 (setting [6]) is given as “did not inhibit PCSK9 in a dose‐dependent manner”. The inhibition at 25 µM in the data set with secreted PCSK9 (Homo sapiens, 25 μM, HepG2, 24 h, read-out: secreted PCSK9 change vs. basal) worked out at 80%.

Consider `Cc1cc(OCc2ccc(C(F)(F)F)cc2)cc(=O)n1Cc1ccc(C(F)(F)F)cc1` [Compound 17a, 6‐Methyl‐1‐(4‐(Trifluoromethyl)Benzyl)‐4‐((4‐(Trifluoromethyl)Benzyl)Oxy)pyridin‐2(1H)‐One], for which, in data set [1] (setting [5]), the CC50 at 24 h came to 22 µM. In data set [2], the “metabolic stability (in words)” value is recorded as “did not show improved metabolic stability compared to 5c”. In the data set on secreted PCSK9 (setting [4]), the inhibition at 5 µM was found to be 58%.

For the molecule `Cc1cc(OCc2cccc(F)c2)cc(=O)n1Cc1ccc(Cl)cc1` [Compound 17b, 1‐(4‐Chlorobenzyl)‐4‐((3‐Fluorobenzyl)Oxy)‐6‐Methylpyridin‐2(1H)‐One], the CC50 at 24 h in data set [1] (setting [5]) came to 10 µM. Also, the “metabolic stability (in words)” value in data set [2] is listed as “did not show any improvement in metabolic stability compared to 5c”. Moreover, the inhibition at 5 µM in the data set with secreted PCSK9 (setting [4]) was 82%. Further, the IC50 in the data set with secreted PCSK9 (setting [7]) was less than 2.5 µM.

Take `Cc1cc(OCc2ccc(C(F)(F)F)cc2)c(Cc2ccc(C(F)(F)F)cc2)c(=O)n1Cc1ccc(C(F)(F)F)cc1` [Compound 18a, 6‐Methyl‐1,3‐Bis(4‐(Trifluoromethyl)Benzyl)‐4‐((4‐(Trifluoromethyl)Benzyl)Oxy)pyridin‐2(1H)‐One]: the “cytotoxicity (in words)” value in the data set on HepG2 cell cultures is “nontoxic at all the concentrations tested”. The CC50 at 24 h in data set [1] (setting [3]) is more than 50 µM. Further, the “metabolic stability, percentage of intact compound recovered relative to control” value in data set [2] is “exceeding 95%”. In data set [2] (with respect to 5c), the “metabolic stability/PCSK9 IC50 ratio (in words)” value is recorded as “higher metabolic stability/PCSK9 IC50 ratio”. For the same molecule, the inhibition at 50 µM in the data set with secreted PCSK9 (setting [4]) was 80%. Moreover, the IC50 in the data set on secreted PCSK9 (setting [7]) is 2.1 µM.

Turning to `Cc1cc(OCc2cccc(F)c2)c(Cc2cccc(F)c2)c(=O)n1Cc1ccc(Cl)cc1` [Compound 18b, 1‐(4‐Chlorobenzyl)‐3‐(3‐Fluorobenzyl)‐4‐((3‐Fluorobenzyl)Oxy)‐6‐Methylpyridin‐2(1H)‐One], in the data set with HepG2 cell cultures, the “cytotoxicity (in words)” value was “nontoxic at all the concentrations tested”. Moreover, in data set [1] (setting [3]), the CC50 at 24 h is more than 50 µM. In addition, the “metabolic stability (in words)” value in data set [2] is reported as “did not show any improvement in metabolic stability compared to 5c”. For the same molecule, the inhibition at 50 µM in the data set on secreted PCSK9 (setting [4]) is 81%. Moreover, the IC50 in the data set with secreted PCSK9 (setting [7]) stood at 3.3 µM.
